Like-named read-outs stand apart in the source and are kept apart here.
Legend:
[1] = fluids of WO 2012/080246; cited from earlier work
[2] = boiling point (ASTM D1120-94); type: physicochemical; settings: at 1013 hPa
Protocol: (i) a boiling point of −4.7° C. at 1013 hectopascals (hPa) (boiling point measured in accordance with ASTM D1120-94 “Standard Test Method of Boiling Point of Engine Coolants”);
(i′) a boiling point of −127.8° C. at 1013 hPa (boiling point measured in accordance with ASTM D1120-94);

[3] = saturated vapor pressure of i-C3F7CN and corresponding pressure raised to 20° C.; type: physicochemical
Protocol: However, since equipment is usually filled with gas at ambient temperature, the pressure to which reference is made in order to fill the equipment with heptafluoroisobutyronitrile is the pressure PTfill that corresponds, at the filling temperature, e.g. 20° C., to the PVS presented by said compound at the lowest utilization temperature Tmin of said equipment. This correspondence is given, for each compound, by the formula: […]
with Tmin expressed in kelvins.
By way of example, the Table II below gives the saturated vapor pressures, referenced PVSi-C3F7CN and expressed in hectopascals, presented by heptafluoroisobutyronitrile at temperatures of 0° C., −5° C., −10° C., −15° C., −20° C., −25° C., −30° C., −35° C., and −40° C., as well as the pressures, referenced P and expressed in hectopascals, which correspond to those saturated vapor pressures raised to 20° C.

SMILES	boiling point [1] [°C]	boiling point [2] [°C]	PVSi-C3F7CN saturated vapor pressure ([3]; 0° C.) [hPa]	Pi-C3F7CN pressure corresponding to the saturated vapor pressure raised to 20° C. ([3]; PVS at 0° C. raised to 20° C.) [hPa]	Pi-C3F7CN pressure corresponding to the saturated vapor pressure raised to 20° C. ([3]; PVS at −5° C. raised to 20° C.) [hPa]	Pi-C3F7CN pressure corresponding to the saturated vapor pressure raised to 20° C. ([3]; PVS at −10° C. raised to 20° C.) [hPa]	Pi-C3F7CN pressure corresponding to the saturated vapor pressure raised to 20° C. ([3]; PVS at −15° C. raised to 20° C.) [hPa]	Pi-C3F7CN pressure corresponding to the saturated vapor pressure raised to 20° C. ([3]; PVS at −20° C. raised to 20° C.) [hPa]	Pi-C3F7CN pressure corresponding to the saturated vapor pressure raised to 20° C. ([3]; PVS at −25° C. raised to 20° C.) [hPa]	Pi-C3F7CN pressure corresponding to the saturated vapor pressure raised to 20° C. ([3]; PVS at −30° C. raised to 20° C.) [hPa]	Pi-C3F7CN pressure corresponding to the saturated vapor pressure raised to 20° C. ([3]; PVS at −35° C. raised to 20° C.) [hPa]	Pi-C3F7CN pressure corresponding to the saturated vapor pressure raised to 20° C. ([3]; PVS at −40° C. raised to 20° C.) [hPa]	PVSi-C3F7CN saturated vapor pressure ([3]; −5° C.) [hPa]	PVSi-C3F7CN saturated vapor pressure ([3]; −10° C.) [hPa]	PVSi-C3F7CN saturated vapor pressure ([3]; −15° C.) [hPa]	PVSi-C3F7CN saturated vapor pressure ([3]; −20° C.) [hPa]	PVSi-C3F7CN saturated vapor pressure ([3]; −25° C.) [hPa]	PVSi-C3F7CN saturated vapor pressure ([3]; −30° C.) [hPa]	PVSi-C3F7CN saturated vapor pressure ([3]; −35° C.) [hPa]	PVSi-C3F7CN saturated vapor pressure ([3]; −40° C.) [hPa]
O=C(C(F)(F)F)C(F)(C(F)(F)F)C(F)(F)F [fluoroketone C5]	23																			
O=C(C(F)(F)C(F)(F)F)C(F)(C(F)(F)F)C(F)(F)F [fluoroketone C6]	49																			
N#CC(F)(C(F)(F)F)C(F)(F)F [i-C3F7CN, 2,3,3,3-tetrafluoro-2-trifluoromethyl propanenitrile]		−4.7	1177	1264	1058	877	720	583	466	368	286	218	968	788	634	504	395	305	232	173

From patent publication US20180040391A1, “GAS-INSULATED MEDIUM-OR HIGH-VOLTAGE ELECTRICAL APPARATUS INCLUDING HEPTAFLUOROISOBUTYRONITRILE AND TETRAFLUOROMETHANE” (General Electric Technology GmbH, priority 2015, published 2018)
